Laboratory results taken from US11312722B2, “Hsp90 inhibitors and uses thereof” (TRUSTEES OF BOSTON UNIVERSITY, priority 2019, dated 2022).

Tests used:
[1] = molecular target: Hsp90 (C. neoformans whole cell lysate) (Cryptococcus neoformans, UniProt J9VVA4); type: binding; details: for C. neo Active (biochemical): Yes/No call; for EC50: read-out: C. neo EC50
Method: (§1) All analogs were assessed for Hsp90 binding affinity using a fluorescence polarization (FP)-based equilibrium competition assay in fungal and human whole cell lysates. […] Using lysates, the relative potency and selectivity for fungal Hsp90 was measured versus the entire ensemble of human Hsp90 isoforms in microplate format using small amounts of test materials. […] Thermal shift assays were performed under saturating ligand conditions, i.e. equimolar concentrations (10 μM) of protein and ligand. As a result, they provided qualitative evidence of target binding, but not a quantitative measurement of ligand affinity. For quantitation, a ligand dissociation constant (Ki) for key compounds was also determined using purified NBDs in FP assays and KD measurements were made by surface plasmon resonance (SPR) using a Biacore instrument. Finally, all analogs were assessed for whole cell antifungal activity against the pathogens C. albicans and C. neoformans.
(§2) FP assays. Whole cell lysates were prepared for FP assays as described previously. Total protein concentration of human and yeast lysates was determined by Bradford assay. […] Serial dilutions of test Hsp90 inhibitors were then assayed under these same conditions to monitor loss of fluorescence polarization as an indicator of probe displacement from Hsp90. […] Titrations of test compound in 25 μL of binding buffer (supplemented with 0.1 mg/mL bovine gamma globulin), were mixed with an equal volume of freshly prepared whole-cell lysate spiked with Cy3-GdA (0.1 nM). Plates were incubated at room temperature for 4.5 h to achieve equilibrium binding for the geldanamycin-based probe. […] Non-linear 4-parameter curve fitting of raw displacement data was performed in GraphPad Prism 5.0 to determine EC50 values as a measure of relative Hsp90-binding affinity. Results were normalized to the value determined for GdA in lysate of each cell type.
(§3) Statistical methods. […] In calculating the error of selectivity determinations, the fractional error of measurements in each species was summed to yield a composite error for the derived ratio.

[2] = tested on: Hsp90 (C. neoformans whole cell lysate); type: binding; details: for C. neo Selectivity (FS): C. neo FS calculated using EC50
Method: as §1, §2, §3

[3] = molecular target: Hsp90 (C. albicans whole cell lysate) (Candida albicans (strain SC5314 / ATCC MYA-2876) (Yeast), UniProt P46598); assay: biochemical; type: binding; details: for C. alb Active (biochemical): Yes/No call; for EC50: read-out: C. alb EC50
Method: as §1, §2, §3

[4] = tested on: Hsp90 (C. albicans whole cell lysate); assay: biochemical; type: binding; details: for C. alb Selective: Yes/No call
Method: as §1, §2, §3

[5] = tested on: C. neoformans (Strain H99); assay: Antifungal sensitivity testing (MIC), C. neoformans H99; type: cell-based; details: for C. neo Active (cells): Yes/No call; for MIC80 / MIC90: Cryptococcus neoformans; for MIC80: read-out: C. neo MIC80; for MIC90: read-out: C. neo MIC90
Method: Color scale bar: no growth inhibition (green) to complete inhibition (black). Each shaded box represents the mean of technical duplicates. The experiment was repeated as an independent biological replicate to confirm results.
Minimum inhibitory concentration (MIC) value for compounds against C. neoformans (Strain H99) was determined in dose-response format, in technical duplicate. Experiments were conducted in RPMI medium at 37° C. for 48 h. Relative viable cell number was measured by standard dye reduction (resazurin) assay.
Yeast strains and culture conditions. Strains used in this study were C. albicans CaCi2 (clinical isolate 2), [58] SC5314, [59] and C. neoformans H99. […] Active cultures were maintained on solid (2% agar) yeast extract peptone (YPD, 1% yeast extract, 2% bactopeptone, 2% glucose) at 4° C. for no more than one month.
Antifungal sensitivity testing. […] Each compound was tested in duplicate in at least two independent experiments. […] Plates were photographed after 24 h of incubation at 30° C.

Hsp90 (C. neoformans whole cell lysate) (Cryptococcus neoformans, UniProt J9VVA4), sequence (J9VVA4 1-699): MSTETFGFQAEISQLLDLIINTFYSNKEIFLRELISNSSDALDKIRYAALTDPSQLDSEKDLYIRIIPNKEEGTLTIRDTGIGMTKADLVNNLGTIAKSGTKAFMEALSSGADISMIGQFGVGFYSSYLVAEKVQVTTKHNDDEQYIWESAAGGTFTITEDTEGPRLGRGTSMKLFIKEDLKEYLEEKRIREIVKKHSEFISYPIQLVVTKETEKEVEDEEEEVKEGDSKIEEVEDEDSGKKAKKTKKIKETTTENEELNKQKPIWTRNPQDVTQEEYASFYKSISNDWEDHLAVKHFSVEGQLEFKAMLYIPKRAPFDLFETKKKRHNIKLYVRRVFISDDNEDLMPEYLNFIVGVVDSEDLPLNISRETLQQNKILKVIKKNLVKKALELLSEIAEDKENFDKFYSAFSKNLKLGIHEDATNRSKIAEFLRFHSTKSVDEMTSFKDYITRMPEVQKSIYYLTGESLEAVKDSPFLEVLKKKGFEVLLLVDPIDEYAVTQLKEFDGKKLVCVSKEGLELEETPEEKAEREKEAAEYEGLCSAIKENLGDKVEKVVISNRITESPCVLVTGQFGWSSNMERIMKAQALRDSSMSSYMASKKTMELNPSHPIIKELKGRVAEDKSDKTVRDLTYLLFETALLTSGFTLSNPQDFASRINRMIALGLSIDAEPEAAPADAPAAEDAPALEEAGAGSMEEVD

Row | Structure (SMILES) | C. neo Active (biochemical) [1] | EC50 [1] [nM] | C. neo Selectivity (FS) [2] | C. neo selective ([2]; Yes/No call) | C. alb Active (biochemical) [3] | EC50 [3] [nM] | C. alb Selectivity (FS) [4] | C. alb Selective [4] | C. neo MIC80 [5] [µM] | C. neo MIC90 [5] [µM] | C. neo Active (cells) [5] | MIC80 [5] [µM] | MIC90 [5] [µM]
1 | COc1ccc(Cn2nc(-c3ccccc3)cc2Nc2cc(O)cc(O)c2C(=O)N2Cc3ccncc3C2)cc1 [BUCMD00433] | Yes | 75 | 13 | Yes | Yes | 11 | 31 | Yes | >25 | >25 | No | – | –
2 | O=C(O)Cn1nc(-c2ccccc2)cc1Nc1cc(O)cc(O)c1C(=O)N1Cc2ccccc2C1 [ACSM01476] | – | 537 | 5.8 | – | Yes | 2120 | 1.4 | No | >25 | >25 | – | – | –
3 | Cc1cccc(-c2cc(Nc3cc(O)cc(O)c3C(=O)N3Cc4ccc(N5CCOCC5)cc4C3)n(C)n2)c1 [ACSM01280] | – | 2000 | 6 | – | No | > 10000 | – | No | >25 | >25 | – | – | –
4 | CN1CCN(c2ccc3c(c2)CN(C(=O)c2c(O)cc(O)cc2Nc2cc(-c4cccc(C(F)(F)F)c4)nn2C)C3)CC1 [ACSM01487] | – | 55 | 50.1 | – | Yes | 1160 | 2.3 | No | >25 | >25 | – | – | –
5 | COc1ccc(Cn2nc(-c3ccccc3)cc2Nc2cc(O)cc(O)c2C(=O)N2Cc3cccnc3C2)cc1 [Compound 23, 5-((1-((4-Methoxyphenyl)methyl)-3-phenyl-1H-pyrazol-5-yl)amino)-4-(5H,6H,7H-pyrrolo[3,4-b]pyridine-6-carbonyl)benzene-1,3-diol] | Yes | – | – | – | – | – | – | – | – | – | No | > 25 | > 25
6 | Cc1cccc(-n2nc(C)c(Nc3cc(O)cc(O)c3C(=O)N3Cc4ccccc4C3)c2C)c1 [ACSM01486, (2-((3,5-Dimethyl-1-(m-tolyl)-1H-pyrazol-4-yl)amino)-4,6-dihydroxyphenyl)(isoindolin-2-yl)methanone] | – | 34 | 43.4 | – | Yes | 2060 | 0.7 | No | – | – | – | > 25 | > 25
7 | O=C(c1c(O)cc(O)cc1Nc1cc(-c2ccccc2)nn1-c1ccccc1)N1Cc2ccccc2C1 [ACSM01305] | – | 577 | 8.1 | – | Yes | 1890 | 0.9 | No | 6.25 | 3 | – | – | –
8 | COc1cccc(-c2cc(Nc3cc(O)cc(O)c3C(=O)N3Cc4ccc(N5CCN(C)CC5)cc4C3)n(C)n2)c1 [ACSM01375] | – | 1240 | 9.6 | – | No | > 10000 | – | No | >25 | >25 | – | – | –
9 | Cc1cccc(-c2cc(Nc3cc(O)cc(O)c3C(=O)N3Cc4ccc(N5CCN(C)CC5)cc4C3)n(C)n2)c1 [ACSM01279] | – | 449 | 18.3 | – | Yes | 2150 | 3.7 | No | >25 | >25 | – | – | –
10 | COc1ccc(-c2cc(Nc3cc(O)cc(O)c3C(=O)N3Cc4cccnc4C3)n(C)n2)cc1 [Compound 122, 5-((3-(4-Methoxyphenyl)-1-methyl-1H-pyrazol-5-yl)amino)-4-(5H,6H,7H-pyrrolo[3,4-b]pyridine-6-carbonyl)benzene-1,3-diol] | – | – | – | – | Yes | – | – | – | – | – | – | > 25 | > 25
11 | Cc1ccc(-c2cc(Nc3cc(O)cc(O)c3C(=O)N3Cc4cn[nH]c4C3)n(C)n2)cc1 [Compound 120, 5-((1-Methyl-3-(4-methylphenyl)-1H-pyrazol-5-yl)amino)-4-(1H,4H,5H,6H-pyrrolo[3,4-c]pyrazole-5-carbonyl)benzene-1,3-diol] | – | – | – | – | Yes | – | – | – | – | – | – | > 25 | > 25
12 | Cn1nc(-c2cccc(C(F)(F)F)c2)cc1Nc1cc(O)cc(O)c1C(=O)N1Cc2ccccc2C1 [Compound 115, 4-(2,3-Dihydro-1H-isoindole-2-carbonyl)-5-((1-methyl-3-(3-(trifluoromethyl)phenyl)-1H-pyrazol-5-yl)amino)benzene-1,3-diol] | – | – | – | – | Yes | – | – | – | – | – | – | > 25 | > 25
13 | Cn1nc(C2CCCCC2)cc1Nc1cc(O)cc(O)c1C(=O)N1Cc2cccnc2C1 [Compound 104, 5-((3-Cyclohexyl-1-methyl-1H-pyrazol-5-yl)amino)-4-(5H,6H,7H-pyrrolo[3,4-b]pyridine-6-carbonyl)benzene-1,3-diol] | – | – | – | – | Yes | – | – | – | – | – | – | > 25 | > 25
14 | Cn1nc(-c2cccc(C(F)(F)F)c2)cc1Nc1cc(O)cc(O)c1C(=O)N1Cc2cn[nH]c2C1 [Compound 117, 5-((1-Methyl-3-(3-(trifluoromethyl)phenyl)-1H-pyrazol-5-yl)amino)-4-(1H,4H,5H,6H-pyrrolo[3,4-c]pyrazole-5-carbonyl)benzene-1,3-diol] | – | – | – | – | Yes | – | – | – | – | – | – | > 25 | > 25
15 | COc1ccc(-c2cc(Nc3cc(O)cc(O)c3C(=O)N3Cc4cn[nH]c4C3)n(C)n2)cc1 [Compound 123, 5-((3-(4-Methoxyphenyl)-1-methyl-1H-pyrazol-5-yl)amino)-4-(1H,4H,5H,6H-pyrrolo[3,4-c]pyrazole-5-carbonyl)benzene-1,3-diol] | – | – | – | – | Yes | – | – | – | – | – | – | > 25 | > 25
